Measurements published in PMC12736018, “Stereoselective Cytotoxicity of Enantiopure 3,3-Dichloro-γ-lactams: Correlating In Vitro Activity with In Vivo Tolerability” (Molecules, 2025).
Converted amounts (≈) assume the structure as drawn.

How the values were obtained:
different cell lines = system: different cell lines; parameters: method as in PMID 38731527; settings: across different cell lines, racemic form; cited from earlier work
HaCaT cells [1] = test: NRU cell viability assay, HaCaT; assay type: cell-based; settings: Homo sapiens, 24 h
Experimental: (§1) The murine Swiss albino fibroblast (3T3), the immortal human keratinocyte (HaCaT), the squamous cell carcinoma (A431), the human epithelial carcinoma (HeLa) and the human breast adenocarcinoma (MCF-7) cell lines were sourced from Celltec UB (Barcelona, Spain). All cells were maintained and grown in DMEM medium (4.5 g/L glucose) supplemented with 10% (v/v) FBS, 2 mM L-glutamine, 100 U/mL penicillin and 100 μg/mL streptomycin at 37 °C, 5% CO2. Cells were routinely cultured in 75 cm^2 culture flasks and were trypsinized using trypsin-EDTA when the cells reached approximately 80%. Cell concentration in the resulting suspension was assessed using the trypan blue assay, which enables direct discrimination between viable (unstained) and non-viable (blue) cells.
(§2) T3 and HaCaT cells (1 × 10^5 cells/mL), along with A431, HeLa, and MCF-7 cells (5 × 10^4 cells/mL), were cultured at defined seeding densities in the 60 central wells of a 96-well plate. Cells were first incubated for 24 h under standard incubator conditions (5% CO2, 37 °C). After this period, the culture medium was removed, and the cells were incubated for an additional 24 h with their corresponding compound solutions (1 mg/mL) previously diluted in a minimum amount of DMF (dimethylformamide) and then in DMEM medium supplemented with 5% FBS (100 µL) at the required concentration range (20 to 250 µg/mL). Cell viability following exposure to the lactam derivatives was evaluated using two complementary assays: NRU and MTT.
(§3) The neutral red uptake (NRU) assay is based on the accumulation of dye in the lysosomes of viable cells. After the cells were incubated for 24 h with the corresponding systems, the medium was removed, and the solutions were incubated with the NR dye (Sigma-Aldrich, St. Louis, MO, USA) solution (50 µg/mL) dissolved in the medium, without FBS and without phenol red (Lonza, Verviers, Belgium), for 3 h. Cells were then washed with sterile PBS, followed by the addition of 100 µL of a solution containing 50% absolute ethanol and 1% acetic acid in distilled water to extract the dye. To promote the total dissolution of the dye, plates were placed in a microtiter-plate shaker for 5 min at room temperature. The absorbance of the resulting solutions was measured at 550 nm (Bio-Rad 550 microplate reader, Bio-Rad California, Hercules, CA, USA). Finally, the effect of each treatment was calculated as the percentage of dye uptake by viable cells relative to the control cells (cells without any treatment). […]

[2] = Cell viability assays (MTT and NRU), summary across the cell panel; assay type: cell-based; settings: MTT, most cell lines, highest tested concentration
Experimental: as §1, §2
(§4) The neutral red uptake (NRU) assay is based on the accumulation of dye in the lysosomes of viable cells. After the cells were incubated for 24 h with the corresponding systems, the medium was removed, and the solutions were incubated with the NR dye (Sigma-Aldrich, St. Louis, MO, USA) solution (50 µg/mL) dissolved in the medium, without FBS and without phenol red (Lonza, Verviers, Belgium), for 3 h. […] The absorbance of the resulting solutions was measured at 550 nm (Bio-Rad 550 microplate reader, Bio-Rad California, Hercules, CA, USA). Finally, the effect of each treatment was calculated as the percentage of dye uptake by viable cells relative to the control cells (cells without any treatment). […]
(§5) Only living cells can reduce the yellow tetrazolium salt 3-(4,5-dimethyl-2-thiazolyl)-2,5-diphenyltetrazolium bromide (MTT) to insoluble purple formazan crystals. […] Agitation and absorbance measurements of the extracted solution were carried out under the same conditions described for the NRU assay. The effect of each treatment was then expressed as the percentage of tetrazolium salt reduction by viable cells relative to untreated controls. […]

[3] = system: 3T3, HaCaT, A431, HeLa and MCF-7 cells; test: as above; assay type: cell-based; settings: for IC50: MTT and NRU, summary statement over cell lines
Experimental: as §1, §2, §4, §5

MCF-7 cells [4] = test: NRU cell viability assay, MCF-7; assay type: cell-based, human; settings: Homo sapiens, MCF7; MCF-7, NRU, 24 h
Experimental: as §1, §2
(§6) The neutral red uptake (NRU) assay is based on the accumulation of dye in the lysosomes of viable cells. After the cells were incubated for 24 h with the corresponding systems, the medium was removed, and the solutions were incubated with the NR dye (Sigma-Aldrich, St. Louis, MO, USA) solution (50 µg/mL) dissolved in the medium, without FBS and without phenol red (Lonza, Verviers, Belgium), for 3 h. Cells were then washed with sterile PBS, followed by the addition of 100 µL of a solution containing 50% absolute ethanol and 1% acetic acid in distilled water to extract the dye. To promote the total dissolution of the dye, plates were placed in a microtiter-plate shaker for 5 min at room temperature. The absorbance of the resulting solutions was measured at 550 nm (Bio-Rad 550 microplate reader, Bio-Rad California, Hercules, CA, USA). Finally, the effect of each treatment was calculated as the percentage of dye uptake by viable cells relative to the control cells (cells without any treatment). Finally, the effect of each treatment was calculated as the percentage of dye retained by viable cells compared with untreated control cells.
(§7) The half-maximal inhibitory concentration (IC50) values for the different formulations, across cell lines and experimental endpoints, were obtained by fitting the concentration-dependent viability curves. […] These findings reflect the very low cytotoxicity of the compounds toward these cell lines.

A431 cells [5] = test: NRU cell viability assay, A431; assay type: cell-based, human; settings: Homo sapiens, A-431, 24 h
Experimental: as §1, §2, §6, §7

3T3 cells [6] = test: MTT cell viability assay, 3T3; assay type: cell-based; settings: Mus musculus, NIH3T3; 3T3, MTT, 24 h
Experimental: as §1, §2
(§8) Only living cells can reduce the yellow tetrazolium salt 3-(4,5-dimethyl-2-thiazolyl)-2,5-diphenyltetrazolium bromide (MTT) to insoluble purple formazan crystals. After a 24 h incubation of the cells with their corresponding NPs, the medium was removed and 100 µL of MTT (Sigma-Aldrich, St. Louis, MO, USA) in PBS (5 mg/mL) diluted 1:10 in culture medium without phenol red and without FBS (Lonza, Verviers, Belgium) was added to the cells. After 3 h of incubation, the medium was removed. Thereafter, 100 µL of DMSO (Sigma-Aldrich, St. Louis, MO, USA) was added to each well to dissolve the purple formazan crystals. Agitation and absorbance measurements of the extracted solution were carried out under the same conditions described for the NRU assay. The effect of each treatment was then expressed as the percentage of tetrazolium salt reduction by viable cells relative to untreated controls.
as §7

HeLa cells [7] = test: NRU cell viability assay, HeLa; assay type: cell-based, human; settings: Homo sapiens, 24 h
Experimental: as §1, §2, §6, §7

HaCaT cells [8] = test: MTT cell viability assay, HaCaT; assay type: cell-based; settings: Homo sapiens, 24 h
Experimental: as §1, §2, §8, §7

Hemolysis assay = assay type: cell-based; settings: human, human erythrocyte suspension, pH 7.4, 10 and 80 µg/mL
Experimental: Human blood samples were obtained from the Banc de Sang i Teixits de Barcelona (Barcelona, Spain) under the Catalan Department of Health. Blood was collected in tubes containing the anticoagulant EDTA-K3. Samples were centrifuged at 3000 rpm and 4 °C for 10 min (Megafuge 2.0 R, Heraeus Instruments, Hanau, Germany) to promote sedimentation, after which plasma was carefully eliminated using a Pasteur pipette. The remaining pellet was washed with PBS (pH 7.4) three times to remove residual leukocytes and platelets while concentrating erythrocytes. After the final wash, the erythrocyte pellet was resuspended in PBS (pH 7.4) at a 1:1 ratio to achieve a final erythrocyte concentration of 8 × 10^9 cells/mL.
The hemolysis assay is used to evaluate the ability of the tested compounds to disrupt erythrocyte membranes. Stock solutions of each compound were prepared in PBS (pH 7.4) at a concentration of 1 mg/mL. Volumes ranging from 10 to 80 μL were transferred into polystyrene tubes, followed by the addition of 25 µL of the erythrocyte suspension, bringing the total volume to 1 mL. The samples were incubated at room temperature under gentle rotation and subsequently centrifuged at 10,000 rpm for 5 min. The absorbance of the resulting supernatants at 540 nm (Shimadzu UV-160A, Shimadzu, Duisburg, Germany) was measured and compared with that of the positive control (erythrocytes hemolyzed with distilled water) and the negative control (erythrocytes suspension in PBS, pH 7.4).
The degree of hemolysis was determined using the following equation:Hemolysis (%) = 100 × (Abs − Abs0)/(Abs100 − Abs0) where Abs, Abs0 and Abs100 are the absorbance of the test samples, of the suspension treated with isotonic phosphate–buffered saline (PBS) and of the suspension of complete hemolysis treated with distilled water, respectively.

MCF-7 cells [9] = test: MTT cell viability assay, MCF-7; assay type: cell-based; settings: Homo sapiens, MCF7; MCF-7, MTT, 24 h
Experimental: as §1, §2, §8, §7

A431 cells [10] = test: MTT cell viability assay, A431; assay type: cell-based; settings: Homo sapiens, A-431, 24 h
Experimental: as §1, §2, §8, §7

3T3 cells [11] = test: NRU cell viability assay, 3T3; assay type: cell-based; settings: Mus musculus, NIH3T3; 3T3, NRU, 24 h
Experimental: as §1, §2, §3

HeLa cells [12] = test: MTT cell viability assay, HeLa; assay type: cell-based; settings: Homo sapiens, 24 h
Experimental: as §1, §2, §8, §7

3T3 fibroblasts = system: 3T3 fibroblasts; parameters: method as in PMID 40283925; settings: normal 3T3 fibroblasts, racemic form; cited from earlier work
A431 tumor cells = system: A431 tumor cells; parameters: method as in PMID 40283925; settings: racemic form; cited from earlier work
zebrafish = system: zebrafish; parameters: method as in PMID 40283925; settings: tested previously in zebrafish; cited from earlier work

Row | IC50 (MCF-7 cells [4]) [µg/mL] | IC50 (A431 cells [5]) [µg/mL] | IC50 (HeLa cells [7]) [µg/mL] | IC50 (MCF-7 cells [9]) [µg/mL] | IC50 (A431 cells [10]) [µg/mL] | IC50 (HeLa cells [12]) [µg/mL] | SMILES | IC50 (different cell lines) [µg/mL] | IC50 (HaCaT cells [1]) [µg/mL] | viability at 24 h, 250 µg/mL [2] [%] | IC50 [3] [µg/mL] | cell survival ([3]; NRU, several lines, 250 µg/mL) | IC50 (3T3 cells [6]) [µg/mL] | IC50 (HaCaT cells [8]) [µg/mL] | hemolysis (Hemolysis assay) [%] | IC50 (3T3 cells [11]) [µg/mL] | IC50 (3T3 fibroblasts) [µg/mL] | IC50 (A431 tumor cells) [µg/mL] | LC50 (zebrafish) [µg/mL]
1 |  |  |  |  |  |  | CC(C)(C)N1CC(CCl)C(Cl)(Cl)C1=O (stereo not drawn) [compound 2] | 100 to 250 |  |  |  |  |  |  |  |  |  |  | 
2 | > 250 | 123 (≈ 452 µM) | 214 (≈ 786 µM) | > 250 | 170 (≈ 624 µM) | > 250 | C[C@@H](c1ccccc1)N1C[C@H](C)C(Cl)(Cl)C1=O [epi-3] |  | > 250 | ≥ 80 | > 68 | around 60% | 68.1 (≈ 250 µM) | > 250 | < 2 | 77.2 (≈ 284 µM) |  |  | 
3 | > 250 | 61.7 (≈ 227 µM) | > 250 | > 250 | 177 (≈ 651 µM) | > 250 | C[C@H](c1ccccc1)N1C[C@@H](C)C(Cl)(Cl)C1=O [epi-4] |  | > 250 |  | > 100 |  | 145 (≈ 534 µM) | > 250 | < 2 | 153 (≈ 563 µM) |  |  | 
4 |  |  |  |  |  |  | CC(C)(C)N1C(=O)C(Cl)(Cl)C1c1ccccc1 (stereo not drawn) [β-lactam 1] |  |  |  |  |  |  |  |  |  | > 210 | 35 to 71 | 14.9 (≈ 54.7 µM)
